Data set [1] has as its target T1, p62 (Mus musculus, UniProt Q64337).
T1 construct: endogenous in cells; host or cells: wild-type and p62-/- MEFs (Keiji Tanaka's laboratory)
As to the kind of experiment: Western blot in wild-type and p62-/- MEFs transduced with α-syn PFFs. It is filed as cell-based. Conditions: 1 μM, 12 h. The text has this:
Wild type human neuroblastoma cells (SH-SY5Y) and Hela were obtained from Korean Cell Line Bank. SH-SY5Y α-syn A53T cells, COS7 cells and 293A cell line were kindly gifted from S.J.L. lab. COS7 cells, 293A cells, wild-type and p62^−/− MEF cells, and wild type or A53T mutant α-syn SH-SY5Y cells were maintained in Dulbecco’s Modified Eagle’s Medium (DMEM) containing 10% fetal bovine serum (FBS). Wild-type and p62^−/− MEFs were obtained from Keiji Tanaka’s laboratory (Tokyo Metropolitan Research Institute, Japan). Cells were incubated at 37 °C in a 5% CO2 humidified chamber. The differentiation of SH-SY5Y α-syn A53T cells was done by 10 µM retinoic acid for 7 days prior to subsequent experiments.
(§1) For the separation of Triton X-100 soluble and insoluble fractions for monitoring α-syn, cells were washed with PBS and lysed in Triton X-100 buffer (50 mM Tris / 150 mM NaCl / 100 mM EDTA / 1% Triton X-100, pH 7.6) containing protease and phosphatase inhibitors for 30 min on ice. The lysates were centrifuged at 12,000 rpm for 30 min, and the soluble supernatant was taken. The remaining pellets were washed with Triton X-100 buffer, followed by centrifugation at 12,000 rpm for 20 min. […] Immunoreactive bands were detected using ECL reagents (Thermo Fisher Scientific, 32,106). […] Densitometry of developed bands was analyzed with ImageJ (NIH, Bethesda).

The next data set concerns cleaved-PARP1. As to the kind of experiment: Western blot of cleaved-PARP1 in h-α-syn PFF-transduced HEK293A cells. The class given is cell-based, human. Conditions: 1 μM, 24 h. The method, then:
(§2) For the separation of Triton X-100 soluble and insoluble fractions for monitoring α-syn, cells were washed with PBS and lysed in Triton X-100 buffer (50 mM Tris / 150 mM NaCl / 100 mM EDTA / 1% Triton X-100, pH 7.6) containing protease and phosphatase inhibitors for 30 min on ice. The lysates were centrifuged at 12,000 rpm for 30 min, and the soluble supernatant was taken. The remaining pellets were washed with Triton X-100 buffer, followed by centrifugation at 12,000 rpm for 20 min. The supernatants were discarded, and the resulting insoluble pellets were resuspended in laemli buffer containing 1% SDS. Samples were subjected to SDS-PAGE. After blocking with 5% milk and washing process, the membranes were incubated with primary antibodies overnight at 4 °C, followed by washing with PBS-T and incubation with horseradish peroxidase-conjugated secondary antibodies. Immunoreactive bands were detected using ECL reagents (Thermo Fisher Scientific, 32,106). For non-reducing SDS-PAGE, cell lysates were mixed with 4 × laemli buffer containing no 2-mercaptoethanol. For reducing SDS-PAGE, cells were lysed by RIPA buffer (150 mM NaCl, 1% Triton X-100, 1% sodium deoxycholate, 0.1% Tris–HCl, pH 7.5, 2 mM EDTA) and prepared with 5 × protein sample buffer containing 2-mercaptoethanol (Elpis Biotech, EBA-1052). Densitometry of developed bands was analyzed with ImageJ (NIH, Bethesda).
In general terms: A western blot detects proteins with antibodies after separation by electrophoresis.

For data set [2], the target named is T2, p62 (Homo sapiens, UniProt Q13501).
T2 construct: endogenous in cells; host or cells: HeLa
T2 sequence (Q13501 whole entry): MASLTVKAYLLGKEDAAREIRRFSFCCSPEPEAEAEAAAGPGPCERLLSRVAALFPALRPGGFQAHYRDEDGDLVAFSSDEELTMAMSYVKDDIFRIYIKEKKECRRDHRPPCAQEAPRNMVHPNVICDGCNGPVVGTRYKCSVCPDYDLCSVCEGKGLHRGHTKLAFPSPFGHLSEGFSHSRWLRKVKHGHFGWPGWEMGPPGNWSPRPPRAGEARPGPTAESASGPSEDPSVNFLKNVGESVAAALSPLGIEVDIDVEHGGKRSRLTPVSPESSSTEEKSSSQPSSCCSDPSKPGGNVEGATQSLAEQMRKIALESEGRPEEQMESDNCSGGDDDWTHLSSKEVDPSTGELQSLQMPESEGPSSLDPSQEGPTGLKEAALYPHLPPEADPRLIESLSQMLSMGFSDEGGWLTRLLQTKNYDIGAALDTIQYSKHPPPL
The experiment in a line: Western blot of p62 oligomerization in HeLa cells. It is filed as cell-based. Here is the method:
as §2

The test system of a further data set is LC3. The experiment in a line: Western blot of LC3 lipidation (LC3-I into LC3-II) in HeLa cells. The class given is cell-based. Conditions: 1 μM, 24 h. Here is the method: as §2
A further data set concerns SH-SY5Y α-syn A53T cells. As to the kind of experiment: MitoTracker Red analysis in SH-SY5Y α-syn A53T cells treated with rotenone. Particulars: 0.1 μM, 24 h; vs vehicle-treated cells. The class given is cell-based, human. Here is the method: Adenovirus overexpressing human wild-type SNCA was kindly gifted from the lab of S.J.L. COS7 cells were infected with the adenovirus overexpressing human α-syn at 0.8 × 10^8 pfu and incubated at 37 °C for 24 h. When the confluency reached 90%, the cells were split onto 6-well plates for further experiments. The α-syn aggregation was induced by the treatment of 100 nM rotenone (Sigma-Aldrich, R8875) for 56 h. For the MitoTracker analyses in SH-SY5Y α-syn A53T cells, rotenone was treated at 1 µM for 48 h with the co-treatment of 100 nM ATC161 for 24 h, then MitoTracker Red CMXRos (Invitrogen; M7512) was used to stain intact mitochondria following the manufacturer’s instruction.

The subject of a further data set is insoluble α-syn species. The experiment in a line: Triton X-100 fractionation assay in primary rat cortex neurons. The class given is cell-based. Here is the method: All procedures were conducted according to the IACUC and were approved by Seoul National University Institutional Animal Care and Use Committee. Rat cortex primary neuron were prepared from E16 Sprague–Dawley rat embryos (Orient Bio). Anesthetized […] were sacrificed by cervical dislocation, and embryos were removed. Cortices were dissected on the ice. Neurons were trypsinized, dissociated and plated onto poly-d-lysine coated cover slips at a density of 5 × 10^4 cells per cm^2 per 12-well plate or 6-well plate. Primary neurons were maintained in Neurobasal A medium containing 2% B27, 0.5 mM glutamax and antibiotics. Cells at 7 DIV were treated with h-α-syn PFF (1 µg/mL) for 14 d.
as §1

Data set [3] in a line: Pharmacokinetic study of ATC161 in male ICR mice. It is filed as in vivo. Here is the method:
Supplementary file 13024_2023_630_MOESM1_ESM.eps: Additional file 1: Supplementary figure 1. Drug profiles of ATL and Autotac compounds. A, drug profiles of ATL compounds. Tissue concentrations and oral bioavailability were measured in ICR male mice upon 5 mg/kg oral administration of each ATL compound. B, structures of ATC161~164. C, Pharmacokinetic study of ATC161 conducted in male ICR mice otherwise indicated. M.W. represents molecular weight. The plasma exposure and the half-life were determined upon either POor IPATC161 administration. The drug tissue exposure was determined in Tau301L BiFC mice. IV refers to intravenous injection.

The test system of data set [4] is extracellular total α-syn. The experiment in a line: ELISA of extracellular α-syn in conditioned media of SH-SY5Y α-syn A53T cells. It is filed as cell-based, human. The method, then: The conditioned medium was collected from differentiated SH-SY5Y cells infected with adenovirus overexpressing human α-syn. Following 24 h infection, the medium was replaced with fresh media containing DMSO or ATC161. The medium was collected after 24 h and centrifuged at 1,000 rpm to remove cell debris and dead cells. The supernatant was concentrated using Amicon 10 K MWCO filters (Millipore, Billerica, MA). The amounts of α-syn in conditioned medium were measured by enzyme-linked immunosorbent assay (ELISA) with an ELISA kit (Abcam, human α-syn ELISA kit, ab260052) following the provider’s instruction. The subsets of collected media were treated to fresh SH-SY5Y cells in order to determine the level of α-syn propagated to the fresh cells.
In general terms: An ELISA detects its analyte on a solid surface through an enzyme-linked reagent.

The subject of data set [5] is high molecular weight α-syn aggregates. The experiment in a line: Dot blot / filter trap assay for α-syn aggregates in differentiated SH-SY5Y α-syn A53T cells. It is filed as cell-based, human. Particulars: 100 nM, 24 h; 450 nm filter. The method, then:
Differentiated SH-SY5Y α-syn A53T cells were treated with 2 μg/ml of a-syn PFFs, and after 24 h cells were treated with 100 nM of ATC161 for 24 h. The cells were lysed in RIPA buffer for 30 min on ice and then centrifuged at 13,000 rpm for 20 min at 4 ℃. The supernatants were aspirated and transferred into a new tube kept on ice. Protein concentration was determined by a BCA assay. The filter trap assay was performed with 5 μg of total protein diluted in 100 μL of lysate. A nitrocellulose membrane (pore size: 0.45 μm) was placed on the filter trap apparatus (96-well Bio-Dot®). Lysates were loaded and allowed to pass through the membrane under vacuum. Aggregated α-syn levels were determined by immunoblotting using an anti-α-syn aggregate antibody [MJFF-14–6-4–2] (1:2000; Abcam, ab209538).

SMILES strings stand for the structures.

T1 sequence (Q64337 whole entry): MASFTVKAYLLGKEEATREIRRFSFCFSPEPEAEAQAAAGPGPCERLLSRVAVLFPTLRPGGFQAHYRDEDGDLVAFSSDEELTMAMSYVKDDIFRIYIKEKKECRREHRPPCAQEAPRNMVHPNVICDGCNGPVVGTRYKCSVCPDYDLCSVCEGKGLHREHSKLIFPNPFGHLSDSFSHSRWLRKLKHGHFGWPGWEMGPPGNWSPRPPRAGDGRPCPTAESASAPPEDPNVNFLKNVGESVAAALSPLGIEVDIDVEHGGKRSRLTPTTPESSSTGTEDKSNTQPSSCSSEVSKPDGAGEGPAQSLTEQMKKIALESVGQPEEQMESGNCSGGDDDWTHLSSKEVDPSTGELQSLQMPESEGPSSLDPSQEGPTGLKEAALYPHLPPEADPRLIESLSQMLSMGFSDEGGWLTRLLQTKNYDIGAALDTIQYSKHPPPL

In the case of `Fc1ccc(COc2cccc(CNCCOCCOCCNc3cccc(-c4cc(-c5ccc6c(c5)OCO6)n[nH]4)c3)c2)cc1` [ATC161, 3-(3-(benzo[d][1,3]dioxol-5-yl)-1H-pyrazol-5-yl)-N-(2-(2-(2-((3-((4-fluorobenzyl)oxy)benzyl)amino)ethoxy)ethoxy)ethyl)aniline], the “lipidation of LC3 in the absence of p62” value at p62 [1] is listed as “failed to induce the lipidation of LC3 into LC3-II”. Further, the “cleaved-PARP1 level (apoptotic process)” value in the data set with cleaved-PARP1 is on record as “efficiently inhibited such an apoptotic process”. Besides, the “p62 oligomerization compared with the other Autotac compounds” value at p62 [2] (1 μM, 24 h) was “most efficiently facilitated p62 oligomerization”. In addition, at p62 [2] (dose-dependent up to 1,000 nM), the “concentration inducing p62 oligomerization” value is recorded as ~ 1 nM. In addition, the “lipidation of LC3 into LC3-II compared with ATC162” value with LC3 is given as “induced the lipidation of LC3 into LC3-II more efficiently”. In addition, the “MitoTracker fluorescence (mitochondrial integrity)” value in the data set on SH-SY5Y α-syn A53T cells is on record as “increased level of MitoTracker signals”. Also, in the data set with insoluble α-syn species (PD model cells (discussion)), the “concentration of lysosomal degradation of aggregates” value came out at 10 nM. In addition, the “concentration from which insoluble α-syn species are targeted” value in the data set on insoluble α-syn species (primary rat cortex neurons, soluble monomeric form intact) turned out to be 10 nM. Further, in data set [3] (male, ICR, oral, mouse plasma, read-out: terminal elimination half-life (T1/2) (converted)), the half-life was 3.7 h. This compound displayed a systemic exposure in data set [3] (oral administration, mice) of 3299.3 ng·h/mL. Besides, the “reduction of relative level of extracellular total α-syn” value in [4] is given as 50%. For the same compound, the “degradation of high molecular weight α-syn aggregates” value in data set [5] is given as “induced the degradation of high molecular weight α-syn aggregates”.

For the origin of these results see paper PMC10290391, “Targeted degradation of ⍺-synuclein aggregates in Parkinson’s disease using the AUTOTAC technology” (Molecular Neurodegeneration, 2023).
